# Assays:
# P2RY8 [1] = biological target: T1, P2RY8 (Homo sapiens, UniProt Q86VZ1); assay: migration inhibition of P2RY8-transduced WEHI-231 cells; format: cell-based; conditions: agonist; CXCL12 50 ng/mL, 37 °C, 3 h
# T1 construct: full length, 358 codons after start to 358; preprolactin signal + N-terminal OX56 tag (P2A-eGFP vector) for BRET; P2RY8-LgBiT fusion for beta-arrestin; MSCV-GFP vector in WEHI-231; expressed in HEK293T or WEHI-231
# P2RY8 [2] = biological target: T2, P2RY8 (Homo sapiens, UniProt Q86VZ1, L220Y); assay: TRUPATH BRET G13 activation assay; format: cell-based; conditions: agonist (falling BRET ratio); HEK293T with Gα13-RLuc8, Gβ3, Gγ9-GFP2; HBSS, 20 mM HEPES
# T2 construct: full length, 358 codons after start to 358; preprolactin signal + N-terminal OX56 tag (P2A-eGFP vector) for BRET; P2RY8-LgBiT fusion for beta-arrestin; MSCV-GFP vector in WEHI-231; expressed in HEK293T or WEHI-231
# [3] = biological target: T3, P2RY8-miniGα13 in complex with Gβ1γ2 (Homo sapiens, UniProt Q86VZ1); assay: cryo-EM structure, […] Å map; format: binding; conditions: orthosteric pocket; active state, Gβ1γ2 bound; pH 7.5, L-MNG/GDN/CHS, 30 μM GGG
# T3 construct: Expi293F TetR; complexed with human Gβ1γ2 from Hi5 cells
fold less potency than GGG (P2RY8 [1]),SMILES,G protein activation (P2RY8 [2]),"cryo-EM structure, 2.7 Å map [3]"
~ 100 fold,CCCCC/C=C\C\C=C/C=C/C=C/[C@@H](SC[C@H](NC(=O)CC[C@H](N)C(=O)O)C(=O)NCC(=O)O)[C@@H](O)CCCC(=O)O [leukotriene C4],–,–
–,CC(C)=CCC/C(C)=C/CC/C(C)=C/CC/C(C)=C/CSC[C@H](NC(=O)CC[C@H](N)C(=O)O)C(=O)NCC(=O)O [S-geranylgeranyl-L-glutathione],The strongly deleterious variant L220Y was unable to drive G protein activation,density consistent with GGG located in the canonical class A GPCR orthosteric ligand-binding pocket

# Source: publication PMC12648108, “Phenotypic pleiotropy of missense variants in human B cell confinement receptor P2RY8” (Cell Genomics, 2025)
